Laboratory results published in patent publication US6875451B2, “Compositions and methods for the treatment of primary and metastatic neoplastic diseases using arsenic compounds” (PolaRx Biopharmaceuticals Inc., priority 1997, dated 2005).

Experiments:
Format in all cases: cell-based
[1] = system: MDA-N; experiment: SRB growth assay, 2 days exposure, breast cancer
Description: (§1) Arsenic trioxide (1 mg/ml, 10 mg/ampoule, manufactured by Taylor Pharmaceuticals, Decatur, Ill.) was tested at five concentrations each at 10-fold dilutions, i.e., 10^−5, 10^−6, 10^−7, 10^−8 and 10^−9 μg/ml.
(§2) The in vitro tests were performed by incubating the test cells in the presence of the indicated concentration of arsenic trioxide under standard culture conditions for a designated period of time, which is followed by a sulforhodamine B (SRB) protein assay to estimate cell viability or growth. The cell lines are organized into subpanels according to the origin of the cell lines, e.g., leukemia, breast cancer, etc. A description of the cell lines and method of testing is described in Monk et al. (1997, Anticancer Drug Des. 12:533-41) and Weinstein et al., (1997, Science 275:343-9), which are incorporated herein in their entirety.
(§3) The measurement of an effect is expressed in Percentage Growth (PG). The measured effect of the compound on a cell line is calculated according to one or the other of the following two expressions: If (Mean ODtest−Mean ODzero)≧0. then PG=100×(Mean ODtest−Mean ODzero)/(Mean ODctrl−Mean ODzero) If (Mean ODtest−Mean ODzero)<0. then PG=100×(Mean ODtest−Mean ODzero)/(Mean ODzero where: • Mean ODzero=the average of optical density measurements of SRB-derived color just before exposure of cells to the test compounds; • Mean ODtest=the average of optical density measurements of SRB-derived color after exposure of cells to the test compound for a designated period of time; and • Mean ODctrl=the average of optical density measurements of SRB-derived color after with no exposure of cells to the test compound for a designated period of time
(§4) The first two columns describe the subpanel (e.g., leukemia) and cell line (e.g., CCRF-CEM) involved. The next two columns list the Mean ODzero and Mean ODctrl; the next five columns list the Mean ODtest for each of five different concentrations. Each concentration is expressed as the log10 (molar or μg/ml). The next five columns list the calculated PGs for each concentration. The response parameters GI50, TGI and LC50 are interpolated values representing the concentrations at which the PG is +50, 0, and −50, respectively. Sometimes these response parameters cannot be obtained by interpolation. If, for instance, all of the PGs in a given row exceed +50, then none of the three parameters can be obtained by interpolation. In such a case, the value given for each response parameter is the highest concentration tested and is preceded by a “>” sign. This practice is extended similarly to the other possible situations where a response parameter cannot be obtained by interpolation.
(§5) In the first set, the cells from 56 different cancer cell lines were exposed to five concentrations of arsenic trioxide continuously for two days prior to performing the SRB assay. In the second set, the cells from 50 different cell lines (a subset of the first 56 cell lines, plus the renal cancer cell line 786-0) were exposed continuously for six days prior to the SRB assay.

[2] = system: MDA-MB-231/ATCC; experiment: SRB growth assay, 2 days exposure, breast cancer
Description: as §1, §2, §3, §4, §5

[3] = system: HS 578T; experiment: SRB growth assay, 2 days exposure, breast cancer
Description: as §1, §2, §3, §4, §5

[4] = system: MCF7; experiment: SRB growth assay, 2 days exposure, breast cancer
Description: as §1, §2, §3, §4, §5

[5] = system: T-47D; experiment: SRB growth assay, 2 days exposure, breast cancer
Description: as §1, §2, §3, §4, §5

[6] = system: NCI-H522; experiment: SRB growth assay, 6 days exposure, non-small cell lung cancer; conditions: NCI-H522, 6 days
Description: as §1, §2, §3, §4, §5

[7] = system: NCI-H226; experiment: as above; conditions: NCI-H226, 6 days
Description: as §1, §2, §3, §4, §5

[8] = system: NCI-H322M; experiment: as above
Description: as §1, §2, §3, §4, §5

[9] = system: HOP-62; experiment: as above; conditions: HOP-62, 6 days
Description: as §1, §2, §3, §4, §5

[10] = system: NCI-H460; experiment: as above; conditions: NCI-H460, 6 days
Description: as §1, §2, §3, §4, §5

[11] = read-out: LC50 (the source's name)

arsenic trioxide
TGI [1]: >0.0126 ng/mL | Percent Growth ([1]; log10 conc −4.9): 3% | Percent Growth ([1]; log10 conc −5.9): 86% | Percent Growth ([1]; log10 conc −6.9): 91% | Percent Growth ([1]; log10 conc −7.9): 101% | Percent Growth ([1]; log10 conc −8.9): 102% | TGI [2]: >0.0126 ng/mL | Percent Growth ([2]; log10 conc −4.9): 3% | Percent Growth ([2]; log10 conc −5.9): 107% | Percent Growth ([2]; log10 conc −6.9): 109% | Percent Growth ([2]; log10 conc −7.9): 102% | Percent Growth ([2]; log10 conc −8.9): 97% | TGI [3]: >0.0126 ng/mL | Percent Growth ([3]; log10 conc −4.9): 42% | Percent Growth ([3]; log10 conc −5.9): 105% | Percent Growth ([3]; log10 conc −6.9): 96% | Percent Growth ([3]; log10 conc −7.9): 105% | Percent Growth ([3]; log10 conc −8.9): 109% | TGI [4]: >0.0126 ng/mL | Percent Growth ([4]; log10 conc −4.9): 11% | Percent Growth ([4]; log10 conc −5.9): 95% | Percent Growth ([4]; log10 conc −6.9): 108% | Percent Growth ([4]; log10 conc −7.9): 98% | Percent Growth ([4]; log10 conc −8.9): 99% | TGI [5]: 0.00986 ng/mL | Percent Growth ([5]; log10 conc −4.9): −10% | Percent Growth ([5]; log10 conc −5.9): 81% | Percent Growth ([5]; log10 conc −6.9): 133% | Percent Growth ([5]; log10 conc −7.9): 109% | Percent Growth ([5]; log10 conc −8.9): 88% | Mean Optical Densities ([6]; Log 10 Concentration −4.9): 0.028 | Percent Growth ([6]; Log 10 Concentration −4.9): −84% | Mean Optical Densities ([6]; Log 10 Concentration −5.9): 0.128 | Percent Growth ([6]; Log 10 Concentration −5.9): −27% | Mean Optical Densities ([6]; Log 10 Concentration −6.9): 1.191 | Percent Growth ([6]; Log 10 Concentration −6.9): 97% | Mean Optical Densities ([6]; Log 10 Concentration −7.9): 0.535 | Percent Growth ([6]; Log 10 Concentration −7.9): 34% | Mean Optical Densities ([6]; Log 10 Concentration −8.9): 1.269 | Percent Growth ([6]; Log 10 Concentration −8.9): 104% | Mean Optical Densities ([7]; Log 10 Concentration −4.9): 0.164 | Percent Growth ([7]; Log 10 Concentration −4.9): 17% | Mean Optical Densities ([7]; Log 10 Concentration −5.9): 0.348 | Percent Growth ([7]; Log 10 Concentration −5.9): 63% | Mean Optical Densities ([7]; Log 10 Concentration −6.9): 0.489 | Percent Growth ([7]; Log 10 Concentration −6.9): 98% | Mean Optical Densities ([7]; Log 10 Concentration −7.9): 0.458 | Percent Growth ([7]; Log 10 Concentration −7.9): 90% | Mean Optical Densities ([7]; Log 10 Concentration −8.9): 0.504 | Percent Growth ([7]; Log 10 Concentration −8.9): 101% | CC50 [7, 11]: > 12.6 µM | Mean Optical Densities ([8]; Log 10 Concentration −4.9): 0.054 | Percent Growth ([8]; Log 10 Concentration −4.9): 3% | Mean Optical Densities ([8]; Log 10 Concentration −5.9): 0.552 | Percent Growth ([8]; Log 10 Concentration −5.9): 77% | Mean Optical Densities ([8]; Log 10 Concentration −6.9): 0.674 | Percent Growth ([8]; Log 10 Concentration −6.9): 96% | Mean Optical Densities ([8]; Log 10 Concentration −7.9): 0.620 | Percent Growth ([8]; Log 10 Concentration −7.9): 88% | Mean Optical Densities ([8]; Log 10 Concentration −8.9): 0.680 | Percent Growth ([8]; Log 10 Concentration −8.9): 97% | CC50 [8, 11]: > 12.6 µM | Mean Optical Densities ([9]; Log 10 Concentration −4.9): 0.014 | Percent Growth ([9]; Log 10 Concentration −4.9): −77% | Mean Optical Densities ([9]; Log 10 Concentration −5.9): 0.451 | Percent Growth ([9]; Log 10 Concentration −5.9): 40% | Mean Optical Densities ([9]; Log 10 Concentration −6.9): 1.019 | Percent Growth ([9]; Log 10 Concentration −6.9): 99% | Mean Optical Densities ([9]; Log 10 Concentration −7.9): 0.997 | Percent Growth ([9]; Log 10 Concentration −7.9): 97% | Mean Optical Densities ([9]; Log 10 Concentration −8.9): 1.076 | Percent Growth ([9]; Log 10 Concentration −8.9): 105% | Mean Optical Densities ([10]; Log 10 Concentration −4.9): 0.062 | Percent Growth ([10]; Log 10 Concentration −4.9): 1% | Mean Optical Densities ([10]; Log 10 Concentration −5.9): 2.535 | Percent Growth ([10]; Log 10 Concentration −5.9): 89% | Mean Optical Densities ([10]; Log 10 Concentration −6.9): 2.792 | Percent Growth ([10]; Log 10 Concentration −6.9): 98% | Mean Optical Densities ([10]; Log 10 Concentration −7.9): 2.806 | Percent Growth ([10]; Log 10 Concentration −7.9): 99% | Mean Optical Densities ([10]; Log 10 Concentration −8.9): 2.797 | Percent Growth ([10]; Log 10 Concentration −8.9): 99% | CC50 [10, 11]: > 12.6 µM
